Test results published in ChEMBL document CHEMBL5512665, “A CARM1 Inhibitor Potently Suppresses Breast Cancer Both In Vitro and In Vivo” (J Med Chem, 2024).
The source made the active and inactive calls.

Key:
[1] = test system: MCF7; assay: Antitumor activity against human MCF7 cells xenografted in BALB/C mouse assessed as downregulation of TFF1 gene expression at 50 mg/kg,ip administrated every other day for 29 days by RT-qPCR analysis; type: functional, organism-based; conditions: time 29.0 day
[2] = test system: MCF7; assay: Synergistic antiproliferative activity against human MCF7 cells assessed as downregulation of CCND1 gene expression at 2.5 uM incubated for 6 hrs in presence of fulvestrant by RT-qPCR analysis; type: functional, cell-based
[3] = test system: MDA-MB-231; assay: Antitumor activity against human MDA-MB-231 cells xenografted in BALB/C mouse assessed as inhibition of tumor growth at 25 mg/kg,ip administrated daily for 11 days; type: functional, organism-based; conditions: time 11.0 day
[4] = test system: 4T1; assay: Potentiation of etoposide induced antiproliferative activity against mouse 4T1 cells assessed as upregulation of DDX58 gene expression at 2.5 uM in presence of etoposide by RT-qPCR analysis; type: functional, cell-based
[5] = test system: MCF7; assay: Antitumor activity against human MCF7 cells xenografted in BALB/C mouse assessed as reduction of tumor weight at 25 mg/kg,ip administrated every other day for 29 days; type: functional, organism-based; conditions: time 29.0 day
[6] = test system: 4T1; assay: Potentiation of etoposide induced antiproliferative activity against mouse 4T1 cells assessed as upregulation of ISG15 gene expression at 2.5 uM in presence of etoposide by RT-qPCR analysis; type: functional, cell-based
[7] = test system: 4T1; assay: Antitumor activity against mouse 4T1 cells implanted in BALB/C mouse assessed as increase in infiltration of CD8 positive T cells at 25 mg/kg,ip administrated daily for 14 days by immunohistochemical staining based analysis; type: functional, organism-based; conditions: time 14.0 day

Measured: Activity

Cc1ccc(-c2nc(N3CCN(CCN(C)C)CC3)ncc2-c2ccoc2)cc1.Cl.Cl
active: all assays above
